Measured values published in ChEMBL document CHEMBL5126640, “Sanggenon C Suppresses Tumorigenesis of Gastric Cancer by Blocking ERK-Drp1-Mediated Mitochondrial Fission” (J Nat Prod, 2022).
Calls of active or inactive are those of the source. The calls are words filed in the database; no cut-off is given here.

Legend:
HGC-27 [1] = experiment: Antiproliferative activity against human HGC-27 cells assessed as reduction in cell growth measured after 24 hrs by CCK8 assay; assay type: functional, cell-based; conditions: HGC-27, 24 h
HGC-27 [2] = experiment: Induction of mitochondrial dysfunction in human HGC-27 cells assessed as decrease in mitochondrial membrane potential measured after 24 hrs by JC-1 staining based flow cytometry; assay type: functional, cell-based; conditions: DDE = dose-dependent effect
AGS [3] = experiment: Induction of apoptosis in human AGS cells assessed as late apoptotic cells at 8 uM measured after 24 hrs by AnnexinV-FITC/PI staining based flowcytometry method (reference value: 3.4%); assay type: functional
AGS [4] = experiment: Induction of cell cycle arrest in human AGS cells assessed as accumulation of cells at G0/G1 phase at 10 uM incubated for 24 hrs propidium iodide staining-based flow cytometric analysis (reference value: 46.51%); assay type: functional
HGC-27 [5] = experiment: Induction of cell cycle arrest in human HGC-27 cells assessed as decrease in CDK4 level at 0 to 10 uM by Western blot analysis; assay type: functional, cell-based; conditions: dose 0-10 µM
AGS [6] = experiment: Inhibition of ERK signalling pathway in human AGS cells assessed as downregulation of p-ERK levels at 0 to 10 uM and measured after 24 hrs by western blot analysis; assay type: cell-based; conditions: dose 0-10 µM
AGS [7] = experiment: Induction of apoptosis in human AGS cells assessed as viable cells at 8 uM measured after 24 hrs by AnnexinV-FITC/PI staining based flowcytometry method (reference value: 95.2%); assay type: functional; conditions: read-out: Activity
HGC-27 [8] = experiment: Induction of apoptosis in human HGC-27 cells assessed as increase in cleaved caspase-3 level at 0 to 10 uM by Western blot analysis; assay type: functional, cell-based; conditions: dose 0-10 µM
AGS [9] = experiment: Induction of apoptosis in human AGS cells transfected with pcDNA3.1-Drp1 plasmid to overexpress DRP1 assessed as viable cells and measured after 24 hrs by AnnexinV-FITC/PI staining based flow cytometry method (reference value: 95.6 %); assay type: functional
AGS [10] = experiment: Induction of apoptosis in human AGS cells assessed as early apoptotic cells at 8 uM measured after 24 hrs by AnnexinV-FITC/PI staining based flowcytometry method (reference value: 1.2%); assay type: functional
HGC-27 [11] = experiment: Induction of apoptosis in human HGC-27 cells assessed as late apoptotic cells at 8 uM measured after 24 hrs by AnnexinV-FITC/PI staining based flowcytometry method (reference value: 5.4%); assay type: functional
AGS [12] = experiment: Induction of apoptosis in human AGS cells assessed as late apoptotic cells measured after 24 hrs by AnnexinV-FITC/PI staining based flow cytometry method (reference value: 2.4%); assay type: functional
AGS [13] = experiment: Induction of apoptosis in human AGS cells assessed as necrotic cells at 10 uM measured after 24 hrs by AnnexinV-FITC/PI staining based flowcytometry method (reference value: 0.2%); assay type: functional
HGC-27 [14] = experiment: Induction of apoptosis in human HGC-27 cells assessed as increase in cleaved caspase-9 level at 0 to 10 uM by Western blot analysis; assay type: functional, cell-based; conditions: dose 0-10 µM
HGC-27 [15] = experiment: Induction of apoptosis in human HGC-27 cells assessed as early apoptotic cells at 8 uM measured after 24 hrs by AnnexinV-FITC/PI staining based flowcytometry method (reference value: 3.3%); assay type: functional
AGS [16] = experiment: Antitumor activity against human AGS cells xenografted in nude mouse assessed as suppression of tumor burden at 10 to 20 mg/kg, ip administered every other day and monitored every 3 days; assay type: functional, organism-based; conditions: dose 10-20 mg/kg, time 3.0 day
HGC-27 [17] = experiment: Induction of apoptosis in human HGC-27 cells assessed as late apoptotic cells measured after 24 hrs by AnnexinV-FITC/PI staining based flow cytometry method (reference value: 1.6%); assay type: functional
AGS [18] = experiment: Induction of apoptosis in human AGS cells assessed as necrotic cells at 8 uM measured after 24 hrs by AnnexinV-FITC/PI staining based flowcytometry method (reference value: 0.2%); assay type: functional
AGS [19] = experiment: Induction of mitochondrial dysfunction in human AGS cells assessed as decrease in mitochondrial membrane potential measured after 24 hrs by JC-1 staining based flow cytometry; assay type: functional, cell-based; conditions: DDE = dose-dependent effect
HGC-27 [20] = experiment: Inhibition of colony formation of human HGC-27 cells assessed as reduction in colony number at 0 to 10 uM measured after 24 hrs by crystal violet staining assay; assay type: functional, cell-based; conditions: dose 0-10 µM
AGS [21] = experiment: Induction of apoptosis in human AGS cells assessed as early apoptotic cells at 10 uM measured after 24 hrs by AnnexinV-FITC/PI staining based flowcytometry method (reference value: 1.2%); assay type: functional
HGC-27 [22] = experiment: Induction of apoptosis in human HGC-27 cells assessed as early apoptotic cells at 10 uM measured after 24 hrs by AnnexinV-FITC/PI staining based flowcytometry method (reference value: 3.3%); assay type: functional
HGC-27 [23] = experiment: Induction of apoptosis in human HGC-27 cells assessed as necrotic cells at 6 uM measured after 24 hrs by AnnexinV-FITC/PI staining based flowcytometry method (reference value: 0.2%); assay type: functional
AGS [24] = experiment: Antitumor activity against human AGS cells xenografted in nude mouse assessed as downregulation of p-DRP1 levels at 10 to 20 mg/kg, ip administered every other day and monitored every 3 days; assay type: functional, organism-based; conditions: dose 10-20 mg/kg, time 3.0 day
AGS [25] = experiment: Induction of apoptosis in human AGS cells assessed as viable cells measured after 24 hrs by AnnexinV-FITC/PI staining based flow cytometry method (reference value: 95.4 %); assay type: functional
AGS [26] = experiment: Antiproliferative activity against human AGS cells assessed as reduction in cell growth measured after 24 hrs by CCK8 assay; assay type: functional, cell-based
[27] = Toxicity in nude mouse xenografted with human AGS cells assessed as effect on alanine aminotransferase level at 10 to 20 mg/kg, ip administered every other day and monitored every 3 days; assay type: organism-based; conditions: in vivo, 72 h, dose 10-20 mg/kg, time 3 day
HGC-27 [28] = experiment: Induction of apoptosis in human HGC-27 cells assessed as late apoptotic cells at 6 uM measured after 24 hrs by AnnexinV-FITC/PI staining based flowcytometry method (reference value: 5.4%); assay type: functional
AGS [29] = experiment: Inhibition of mitochondrial fission in human AGS cells assessed as reduction in ATP content at 0 to 10 uM measured after 24 hrs by microplate reader assay; assay type: functional, cell-based; conditions: dose 0-10 µM
HGC-27 [30] = experiment: Inhibition of mitochondrial fission in human HGC-27 cells assessed as reduction in punctiform mitochondria at 0 to 6 uM measured after 24 hrs by mitotracker based confocal microscopy; assay type: functional; conditions: dose 0-6 µM
AGS [31] = experiment: Induction of apoptosis in human AGS cells assessed as viable cells at 6 uM measured after 24 hrs by AnnexinV-FITC/PI staining based flowcytometry method (reference value: 95.2%); assay type: functional; conditions: read-out: Activity
AGS [32] = experiment: Inhibition of colony formation of human AGS cells assessed as reduction in colony number at 0 to 10 uM measured after 24 hrs by crystal violet staining assay; assay type: functional, cell-based; conditions: dose 0-10 µM
HGC-27 [33] = experiment: Induction of cell cycle arrest in human HGC-27 cells assessed as accumulation of cells at G0/G1 phase at 6 uM incubated for 24 hrs propidium iodide staining-based flow cytometric analysis (reference value: 45.21%); assay type: functional
AGS [34] = experiment: Induction of apoptosis in human AGS cells assessed as upregulation of Bax level at 0 to 10 uM by Western blot analysis; assay type: functional, cell-based; conditions: dose 0-10 µM
HGC-27 [35] = experiment: Induction of cell cycle arrest in human HGC-27 cells assessed as accumulation of cells at G0/G1 phase at 10 uM incubated for 24 hrs propidium iodide staining-based flow cytometric analysis (reference value: 45.21%); assay type: functional

With `CC(C)=CCC12Oc3cc(O)ccc3C1(O)Oc1cc(O)c([C@H]3C=C(C)C[C@H](c4ccc(O)cc4O)[C@H]3C(=O)c3ccc(O)cc3O)c(O)c1C2=O` (stereo not given in full) the IC50 (HGC-27 [1]) was 9.13 µM, the Activity (HGC-27 [2]) was “Dde” and the Activity (AGS [3]) was 7.9%. For the same molecule, the Activity (AGS [4]) was 55.9%, the Activity (HGC-27 [5]) was “Active” and the inhibition (AGS [6]) was “Active”. For the same molecule, the viability at 8 µM (AGS [7]) was 89.8%, the Activity (HGC-27 [8]) was “Active” and the Activity (AGS [9]) was 90.3%. It also gave an Activity (AGS [10]) of 2.1%, an Activity (HGC-27 [11]) of 11.1% and an Activity (AGS [12]) of 7.6%. For the same molecule, the Activity (AGS [13]) was 0.3%, the Activity (HGC-27 [14]) was “Active” and the Activity (HGC-27 [15]) was 4%. The Activity (AGS [16]) was “Active”, the Activity (HGC-27 [17]) was 3.9% and the Activity (AGS [18]) was 0.3%. The Activity (AGS [19]) was “Dde”, the inhibition (HGC-27 [20]) was “Active” and the Activity (AGS [21]) was 3.2%. For the same molecule, the Activity (HGC-27 [22]) was 10.3%, the Activity (HGC-27 [23]) was 1.5% and the Activity (AGS [24]) was “Active”. For the same molecule, the Activity (AGS [25]) was 88.8%, the IC50 (AGS [26]) was 9.86 µM and the Activity [27] was “Non-Toxic”. For the same molecule, the Activity (HGC-27 [28]) was 10%, the inhibition (AGS [29]) was “Active” and the inhibition (HGC-27 [30]) was “Active”. For the same molecule, the viability at 6 µM (AGS [31]) was 90.1%, the inhibition (AGS [32]) was “Active” and the Activity (HGC-27 [33]) was 61.3%. For the same molecule, the Activity (AGS [34]) was “Active” and the Activity (HGC-27 [35]) was 64.2%.
